From PubChem BioAssay AID1259407 (Chemical Carcinogenesis Research Information System (CCRIS), 2018)
Active and inactive are the calls of the source. How the calls were made is not given here.

Tested on: CCRIS mutagenicity, Ames/micronucleus/aberration tests
Assay: CCRIS mutagenicity studies
[1] = Test System: AMES SALMONELLA TYPHIMURIUM, Strain/Indicator: TA98, Metabolic Activation: NONE, Method: STANDARD PLATE
[2] = Test System: AMES SALMONELLA TYPHIMURIUM, Strain/Indicator: TA100, Metabolic Activation: NONE, Method: STANDARD PLATE

Measured: mutagenic call

O=[N+]([O-])c1ccc2ccc3c4ccccc4cc4ccc1c2c43
inactive: Test System: AMES SALMONELLA TYPHIMURIUM, Strain/Indicator: TA98 (NR), Metabolic Activation: NONE, Method: STANDARD PLATE inactive; negative | Test System: CHINESE HAMSTER OVARY, Strain/Indicator: CHO-K1-BH4 (HGPRT), Metabolic Activation: NONE inactive; negative | Test System: CHO/HGPRT, Strain/Indicator: CHO-K1-BH4, Metabolic Activation: NONE inactive; negative | Test System: CHO/HGPRT, Strain/Indicator: CHO-K1-BH4, Metabolic Activation: RAT, LIVER, HEPATOCYTES inactive; negative | Test System: CHO/HGPRT, Strain/Indicator: CHO-K1-BH4, Metabolic Activation: RAT, LIVER, HEPATOCYTES, 3-METHYLCHOLANTHRENE inactive; negative | Test System: CHO/HGPRT, Strain/Indicator: CHO-K1-BH4, Metabolic Activation: RAT, LIVER, HEPATOCYTES, AROCLOR 1254 inactive; negative | Test System: CHO/HGPRT, Strain/Indicator: CHO-K1-BH4, Metabolic Activation: RAT, LIVER, S-9 inactive; negative
active: Test System: AMES SALMONELLA TYPHIMURIUM, Strain/Indicator: TA98(1,8-DNP6), Metabolic Activation: NONE active; positive | Test System: AMES SALMONELLA TYPHIMURIUM, Strain/Indicator: TA98 (1,8-DNP6), Metabolic Activation: NONE, Method: STANDARD PLATE active; positive | Test System: AMES SALMONELLA TYPHIMURIUM, Strain/Indicator: TA98(NR), Metabolic Activation: NONE active; positive | Test System: AMES SALMONELLA TYPHIMURIUM, Strain/Indicator: TA98(NR), Metabolic Activation: NONE, Method: PREINCUBATION active; positive | Test System: AMES SALMONELLA TYPHIMURIUM, Strain/Indicator: TA98, Metabolic Activation: NONE active; positive | Test System: AMES SALMONELLA TYPHIMURIUM, Strain/Indicator: TA98, Metabolic Activation: NONE', Method: STANDARD PLATE active; positive | Test System: AMES SALMONELLA TYPHIMURIUM, Strain/Indicator: TA98, Metabolic Activation: NONE, Method: PREINCUBATION active; positive | [1] active; positive | Test System: AMES SALMONELLA TYPHIMURIUM, Strain/Indicator: TA98, Metabolic Activation: NONE, Method: STANDARD PLATE (ANAEROBIC) active; positive | Test System: AMES SALMONELLA TYPHIMURIUM, Strain/Indicator: TA98, Metabolic Activation: RAT, LIVER, HEPATOCYTES, AROCLOR 1254 active; positive | Test System: AMES SALMONELLA TYPHIMURIUM, Strain/Indicator: TA98, Metabolic Activation: RAT, LIVER, S-9, AROCLOR 1254 active; positive | [2] active; positive | Test System: CHINESE HAMSTER OVARY, Strain/Indicator: CHO-K1-BH4 (HGPRT), Metabolic Activation: RAT, LIVER, S-9, 3-METHYLCHOLANTHRENE active; positive | Test System: CHO/HGPRT, Strain/Indicator: CHO-K1-BH4, Metabolic Activation: RAT, LIVER, S-9, 3-METHYLCHOLANTHRENE active; positive | Test System: CHO/HGPRT, Strain/Indicator: CHO-K1-BH4, Metabolic Activation: RAT, LIVER, S-9, AROCLOR 1254 active; positive

Cn1cnc2c(NO)ncnc21
active: Test System: AMES SALMONELLA TYPHIMURIUM, Strain/Indicator: TA98, Metabolic Activation: RAT, LIVER, S-9, AROCLOR 1254, Method: STANDARD PLATE active; positive
inactive: Test System: AMES SALMONELLA TYPHIMURIUM, Strain/Indicator: TA97, Metabolic Activation: NONE, Method: STANDARD PLATE inactive; negative | Test System: AMES SALMONELLA TYPHIMURIUM, Strain/Indicator: TA97, Metabolic Activation: RAT, LIVER, S-9, AROCLOR 1254, Method: STANDARD PLATE inactive; negative | [1] inactive; negative | [2] inactive; negative | Test System: AMES SALMONELLA TYPHIMURIUM, Strain/Indicator: TA100, Metabolic Activation: RAT, LIVER, S-9, AROCLOR 1254, Method: STANDARD PLATE inactive; negative
